Assay results: US8304238B2, “Cell culture medium and immobilized preparation of cell adhesion protein or peptide” (Nat'l Institute for Environmental Studies, priority 2003, dated 2012)
Entries after “also recorded” stand apart in the source; their conditions may differ. Where no end group is shown, it is not given here.

B1: A5G77 (Leu-Val-Leu-Phe-Leu-Asn-His-Gly-His-Phe-Val-Ala) (peptide)
peptide: LVLFLNHGHFVA
B2: hA3G83 (Gly-Asn-Ser-Thr-Ile-Ser-Ile-Arg-Ala-Pro-Val-Tyr) (peptide)
peptide: GNSTISIRAPVY
B3: hA3G75 (Lys-Asn-Ser-Phe-Met-Ala-Leu-Tyr-Leu-Ser-Lys-Gly) (peptide)
peptide: KNSFMALYLSKG
B4: A4G82 (Thr-Leu-Phe-Leu-Ala-His-Gly-Arg-Leu-Val-Phe-Met) (peptide)
peptide: TLFLAHGRLVFM
B5: AG81.2 (Val-Lys-Thr-Glu-Tyr-Ile-Lys-Arg-Lys-Ala-Phe-Met) (peptide)
peptide: VKTEYIKRKAFM
B6: A3G72 (Lys-Pro-Arg-Leu-Gln-Phe-Ser-Leu-Asp-Ile-Gln-Thr) (peptide)
peptide: KPRLQFSLDIQT

How the values were obtained:
[1] = system: alveolar type II epithelial cells (T2 cells); assay: Inhibition of T2 cell adhesion by free peptide different from the immobilized peptide substrate; assay type: cell-based; conditions: for Inhibition by free peptide of T2 cell adhesion to immobilized AG73: AG73 (etc.) immobilized; for Inhibition by free peptide of T2 cell adhesion to immobilized FIB-1: FIB-1 immobilized
Procedure: Results obtained by adding the free peptides different from the immobilized peptides when T2 cells were cultured on the immobilized peptide prepared according to the method in Example 7, were shown in FIG. 8.
When adding the free peptides that were the same as the immobilized peptides in the culture medium, the both (free and immobilized) peptides compete for syndecan of T2 cells and as a result, the cell adhesion is inhibited (see Example 7). So far, four types of syndecans are genetically known. Whether these syndecans are commonly owned or accommodated by each peptide, overlapping only by some degrees, otherwise mutually exclusive, was examined herein.

[2] = system: alveolar type II epithelial cells (T2 cells); assay: Time course of cell adhesion/spreading of T2 cells on immobilized cell adhesion peptide substrates; assay type: cell-based
Procedure: Culture was conducted by using the cell adhesion peptides immobilized on a well and T2 cells, for 1-24 hours according to the method in Example 8.
As cell adhesion peptides, AG73 was used in B, E and M, FIB-1 was used in C, L and O, A3G72 was used in F, A4G82 was used in G and N, A5G71 was used in H, A5G77 was used in I, hA3G75 was used in J, and hA3G83 was used in K; FN was used as a standard substance in A and D.

[3] = system: alveolar type II epithelial cells (T2 cells); assay: Binding strength (affinity) of immobilized LN peptides to T2 cells relative to immobilized FIB-1 (mixed immobilization, free FIB-1 competition); assay type: cell-based; parameters: key to Binding strength to T2 cells, Comprehensive evaluation: AA: extremely strongly binding/adhering; A: strongly binding/adhering; B: intermediately binding/adhering (as the same degree as FIB-1 peptide); C: more weakly binding/adhering than FIB-1 peptide; conditions: for Binding strength to T2 cells, Comprehensive evaluation: classification relative to FIB-1 peptide; for Binding strength to T2 cells, Ratio to FIB-1: inverse of mixing ratio at transitional midpoint, MMAC-coated well; for Binding strength to T2 cells, Ratio to FIB-1 / Mixing ratio at the transitional midpoint: FIB-1 0.25 mg/ml; for Mixing ratio at the transitional midpoint: peptide:FIB-1 co-immobilized, loss of inhibition by free FIB-1
Procedure: Therefore, the amount of FIB-1 peptide was set at 0.25 mg/ml, and AG73 peptide was mixed therewith, while changing its concentration ratio, from 1/1.250 of FIB-1 in an amount which is 0.20 μg/ml, to ½ of FIB-1 in an amount which is 0.125 mg/ml, and the mixture was immobilized on a well wherein a hydrophobic binding-adsorptive polymer MMAC was coated. The amount of cell adhesion in the case where T2 cells were cultured under a serum-free condition for 1 day on the immobilized peptides is shown in FIG. 9, in comparison with the case where the culture was conducted on the immobilized FIB-1, which was set at 100%.
However, in a case that the ratio of FIB-1:AG73 increased to 1:0.02, because T2 cells already transited to be adherent through the immobilized AG73 peptide, free FIB-1 peptide could no longer inhibit the cell adhesion. […] Likewise, with regard to A3G72 and A4G82 peptides, because the mixing ratio at the transitional midpoint=0.1, their binding strength to T2 cells is 10 times as much as that of FIB-1.
The method used in FIGS. 8 and 9 is extremely effective as a convenient method by which a relative order can be measured concerning to the binding strength (affinity) of cell adhesion peptides and the strength of cell adhesion can be considered quantitatively.
In Table 1, the classification is shown based on the results of the affinity (bonding/adhesion strength) between FIB-1 peptide containing RGD amino acid sequence of FN molecule, a binding site to integrin, and T2 cells: laminin α-chain G-domain peptides are classified into class AA, extremely strong binding/adhesion; class A, strong adhesion; class B, adhesion as the same degree as FIB-1; and class C, binding weaker than the described above.

[4] = system: alveolar type II epithelial cells (T2 cells); assay: Inhibition by free cell adhesion peptides of T2 cell adhesion to coated cell adhesion proteins FN, Col I, LN, VN; assay type: cell-based; conditions: for Inhibition of adhesion of T2 cells to FN, Col I, LN and VN by free peptide: free peptide 0.25 mg/ml, serum-free, 1 day
Procedure: Commercially available FN, LN and VN, usually used as cell adhesion proteins at cell culture, were coated to wells at the concentrations of 5 μg/ml, 10 μg/ml and 10 μg/ml, respectively. In case of Col I (collagen type I), Col I at the concentration of 100 μg/ml, dissolved in 1 mM HCl, was poured into a well, left stand still for a while, and then the solution was removed and air-drying was conducted, and rinsed with the medium, before use. Next, 6×10^5 cells/ml of alveolar type II epithelial cells (T2 cells) suspended in the serum-free DMEM medium was seeded by 100 μl each on a 96-well to which the extracellular matrix was coated, and cultured in a CO2 incubator at 37° C. for 1 day. After the culture was finished, the cells were fixed with 100 μl of methanol for 5 minutes, and stained for 30 minutes with 50 μl of 0.4% crystal violet. Excessive staining was washed with water, then the number of cells adhered to FN, Col I, LN and VN, which had been coated to the wells, was counted based on the absorbance of cytoplasm (A595).
On the other hand, among amino acid sequences of various LN molecules, the sequences that induce cell adhesion are known to be present. […] Then, the number of cells was counted in accordance with the method described above.

[5] = system: alveolar type II epithelial cells (T2 cells); assay: Static and forced stretching culture of T2 cells on MMAC-coated silicone wells with immobilized proteins or peptides; assay type: cell-based; conditions: for Reorientation of T2 cells under forced stretching: 1 day static, 1 day stretching (1dC-1dS), 25 percent, 15 times per minute; for Change of type II epithelial cells into a shape like type I epithelial cells: 3 days static, 3 days stretching (3dC-3dS)
Procedure: A silicone well coated with MMAC was obtained by pouring 0.5 ml of ethanol solution of 50 μg/ml of MMAC (ISP, International Specialty Products, USA) into a silicone well with a groove of 20 mm×20 mm×10 mm, absorbing excess solution, and conducting air-drying.
Into the silicone wells coated by the method described in Example 1, 10 μg/ml of cell adhesion protein solution of fibronectin (FN), laminin-1 (LN), dissolved in 0.1 M triethanolamine buffer solution of pH 8.8, or 0.25 mg/ml of cell adhesion peptide solution of FIB-1, AG73 was poured respectively, and the reaction was conducted for at least several hours at 37° C. to bind and immobilize these proteins or peptides having cell adhesion activity (see Example 6 described later for particulars of immobilization). Subsequently, alveolar type II epithelial cell (T2 cells) suspension was poured, 5×10^4/cm^2 per unit area, and the culture was started in a CO2 culture apparatus.
T2 cells, 2×10^5/cm^2 per unit area, were seeded on the silicone well wherein the cell adhesion proteins or peptides were immobilized, which had been prepared in an almost same manner as that of Example 2, and static culture was conducted for 1 day. After confirming that the seeded cells confluently spread all over the culture face, horizontal cell stretching was forcibly started at the stretching degree of twenty five percents and at the frequency of 15 times per minute, by using cell culture stretching apparatus (Scholar Tec), and the culture was continued one more day. After the culture was finished, photographs of cell adhesion state were taken with a phase contrast microscope (FIG. 2, top 4 rows).
T2 cells, 5×10^4/cm^2 per unit area, were seeded on the silicone well wherein the cell adhesion proteins or peptides were immobilized, which had been prepared in an almost same manner as that of Example 2, and static culture was conducted for 3 days. T2 cells grew in a manner similar to that shown in FIG. 1, 3d (results are not shown because they are overlapping). Then, the cells were subjected to the same stimuli of forced stretching as in Example 1, and the culture was continued one more day. After the culture was finished, photographs of cell adhesion state were taken with a phase contrast microscope (FIG. 2, middle 4 rows) (FN, 3dC-1dS, LN, 3dC-1dS, FIB-1, 3dC-1dS, and AG-73, 3dC-1dS).
Forced stretching culture was conducted for 3 days in an almost same manner as stretching culture of Example 4. After the culture was finished, photographs of cell adhesion state were taken with a phase contrast microscope (FIG. 2, bottom 4 rows) (FN, 3dC-3dS, LN, 3dC-3dS, FIB-1, 3dC-3dS, and AG-73, 3dC-3dS).

[6] = target: syndecan present on the cell surface of T2 cells (alveolar type II epithelial cells); assay: T2 cell adhesion to FIB-1 and the peptide co-immobilized on MMAC-coated wells, inhibition by free FIB-1 (FIG. 9)
[7] = target: syndecan present on the cell surface of T2 cells (alveolar type II epithelial cells); assay: T2 cell adhesion to immobilized peptides, competitive inhibition by free peptides (FIGS. 8 and 9)

mixing ratio at the transitional midpoint (peptide to FIB-1) [6] | Binding strength to T2 cells, Ratio to FIB-1 (fold (ratio to FIB-1)) [7] | Molecule | Inhibition by free peptide of T2 cell adhesion to immobilized AG73 [1] | Inhibition by free peptide of T2 cell adhesion to immobilized FIB-1 [1] | Cell adhesion/spreading on immobilized peptide ([2]; 6-hour culture) | Binding strength to T2 cells, Comprehensive evaluation [3] | Binding strength to T2 cells, Ratio to FIB-1 [3] | Mixing ratio at the transitional midpoint [3] | Inhibition of adhesion of T2 cells to FN, Col I, LN and VN by free peptide [4] | other results
– | – | GNSTISIRAPVY | inhibited the cell adhesion | could inhibit | delay in spreading but sufficient cell adhesion | B | 1-2 | about 1 | inhibited adhesion of T2 cells | –
– | – | KNSFMALYLSKG | inhibited the cell adhesion | could inhibit | delay in spreading but sufficient cell adhesion | B | 2 | about 1 | inhibited adhesion of T2 cells | –
– | – | KPRLQFSLDIQT | inhibited the cell adhesion | – | the cells were spreading | A | 10 | 0.1 | inhibited adhesion of T2 cells | –
– | – | RKRLQVQLSIRT | inhibited the cell adhesion | inhibited; also recorded: could inhibit | the cells were spreading | AA | 100 | 0.01 | inhibited adhesion of T2 cells | Cell adhesion/spreading on immobilized peptide ([2]; 24-hour culture): almost all cells had finished spreading; Reorientation of T2 cells under forced stretching [5]: spread in an elongated shape to a direction perpendicular to the direction of forced stretching; Change of type II epithelial cells into a shape like type I epithelial cells [5]: changed into a shape like flat type I epithelial cells; Inhibition of adhesion of T2 cells to cell adhesion proteins by free peptide ([4]; free peptide 0.12 mg/ml): exhibited the inhibitory activity
– | – | TLFLAHGRLVFM | inhibited the cell adhesion | could inhibit | the cells were spreading | A | 10 | 0.1 | inhibited adhesion of T2 cells | Cell adhesion/spreading on immobilized peptide ([2]; 24-hour culture): almost all cells had finished spreading
– | – | fibronectin [FN] | – | – | – | – | – | – | – | Reorientation of T2 cells under forced stretching [5]: not very obvious; Change of type II epithelial cells into a shape like type I epithelial cells [5]: less observed
– | – | laminin-1 [LN] | – | – | – | – | – | – | – | Reorientation of T2 cells under forced stretching [5]: not very obvious; Change of type II epithelial cells into a shape like type I epithelial cells [5]: changed into a shape like flat type I epithelial cells
1 | – | B1 | – | – | – | – | – | – | – | –
1 | – | B2 | – | – | – | – | – | – | – | –
1 | 2 | B3 | – | – | – | – | – | – | – | –
0.1 | 10 | B4 | – | – | – | – | – | – | – | –
– | < 1 | B5 | – | – | – | – | – | – | – | –
0.1 | 10 | B6 | – | – | – | – | – | – | – | –
